Assay results published in PMC9058666 (RSC Advances, 2020).

What was measured:
in vivo = details: SD, rat, po, 50 mg/kg
[1] = SD, rat, in vivo, po

O=c1[nH]cc(F)c(=O)[nH]1 [5-FU, 5-Fluorouracil]
AUC(0-inf) (in vivo): 54600 ± 15000 ng·h/mL
AUC(0-t) (in vivo): 50400 ± 10800 ng·h/mL
Cmax (in vivo): 21000 ± 1980 ng/mL
Tmax (in vivo): 0.667 ± 0.289 h
half-life (in vivo): 1.47 ± 0.449 h
Cmax of 5-FU (from Fig. 7, mean plasma concentration-time profile) [1]: 20000 ng/mL
time at which Cmax was reached (from Fig. 7) [1]: 0.5 h
